In patent publication US20080125475A1 (priority 2006, published 2008):
pKi: −log10 of the molar value. Like-named read-outs stand apart in the source and are kept apart here.

What was measured:
Sprague-Dawley rats [1] = test: animal or person; type: in vivo, rat; conditions: iv
mice = conditions: mouse, in vivo
ORL1 receptor = biological target: T1, ORL1 receptor (Homo sapiens, UniProt P41146); test: biochemical; type: binding
T1 construct: expressed in transfected cells; host or cells: CHO (recombinant CHO-ORL1 cells), membranes
T1 sequence (P41146 whole entry): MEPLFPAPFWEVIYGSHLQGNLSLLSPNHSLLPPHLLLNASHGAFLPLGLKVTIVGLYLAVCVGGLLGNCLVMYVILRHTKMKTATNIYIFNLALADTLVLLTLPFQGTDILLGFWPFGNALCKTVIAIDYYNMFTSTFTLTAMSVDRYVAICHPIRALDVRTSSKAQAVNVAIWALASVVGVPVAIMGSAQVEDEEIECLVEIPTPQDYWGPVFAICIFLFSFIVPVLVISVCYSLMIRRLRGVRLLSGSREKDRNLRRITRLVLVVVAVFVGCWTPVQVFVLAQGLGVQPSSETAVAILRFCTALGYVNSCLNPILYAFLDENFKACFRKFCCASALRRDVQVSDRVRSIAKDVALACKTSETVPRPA

Sprague-Dawley rats [2] = test: animal or person; type: in vivo; conditions: Rattus norvegicus, iv, read-out: ED50 acute

In the case of `CCC(=O)C(C[C@@H](C)N(C)C)(c1ccccc1)c1ccccc1` [Compound B7, L-methadone], the ED50 (Sprague-Dawley rats [1]; Rattus norvegicus, read-out: ED50 chronic) was 0.49 mg/kg, the “Enhancement of action factor” value (Sprague-Dawley rats [1]; rat, in vivo) was 0.4x and the naloxone-induced withdrawal jumping (mice) was “reduced in comparison with B1-B4 but is still significant”. The pKi (ORL1 receptor) was under 6.00 and the ED50 (Sprague-Dawley rats [2]) was 0.21 mg/kg.
